Tested on: dendritic cells
Assay: IL-10/IL-12 secretion of stimulated dendritic cells (ELISA / ELISPOT) compared with the conventional Signal 3 Assay
Type: cell-based, human
Settings: especially immature DCs (iDCs) and Jonuleit maturated DCs; FIG. 4 ELISA, FIG. 5 ELISPOT
Description: Monocytes are isolated with adherent isolation followed by dendritic cell generation for 3 days using IL-4 and GMSCF. Afterwards dendritic cells were maturated with MDG cocktail and IL-4 and GMCSF for 24 h. In case of Jonuleit cocktails cells were incubated for 6 days using IL-4 and GMSCF. Then cells where incubated with the Jonuleit cocktail (and IL-4 and GMCSF) for 24 h. For all assays, frozen dendritic cells were used thawed the day before the assay and incubated in DC medium until assay start. Stimulation is carried out for 24 h in a 96 well plate. Therefore, 11,000 dendritic cells were seeded per well. 1.1 μl CD40L in 110 μl DC Medium (VLE RPMI 1640 with 1.5% human serum) 1 μg/ml LPS and R848 were added.
Elisa assay was performed according to the protocols of the human IL-10, IL12p70 respectively, DuoSet ELISA-Kit (R&D Systems, Inc, Minneapolis, USA).
The IL-10/IL-12 Elispot assay was carried out according to the protocol of the Human IL-10/IL-12 Double-Color ELISPOT kit of (C.T.L. Cellular technology Limited, Cleaveland, USA)

CCOCc1nc2c(N)nc3ccccc3c2n1CC(C)(C)O [R848, 4-amino-2-ethoxymethyl-α,α-dimethyl-1H-imidazol[4,5-c]quinoline-1-ethanol]
IL-10 secretion with R848 as costimulatory reagent added to CD40L: necessary as a costimulatory reagent for optimal IL-10 secretion

— US20210063413A1, “DENDRITIC CELL POTENCY ASSAY” (MEDIGENE IMMUNOTHERAPIES GMBH, priority 2017, published 2021)
